Where “and” joins values, the source holds several entries; their conditions need not be identical. Equal entries are not always repeated. Inconclusive results and toxic doses are left out. Rule for the calls: active = survival T/C of 150% or more; inactive = T/C below 125% in these data.
Test system: CD2F1 mice, L1210 leukemia ip, survival T/C
Assay: NCI In Vivo Anticancer Drug Screen. Data for tumor model L1210 Leukemia (intraperitoneal) in CD2F1 (CDF1) mice
Conditions: endpoint: mean survival time, higher = longer survival
Procedure, shortened: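 Transplantable tumor in mice; compound-treated vs vehicle-treated groups. Read-out = treated/control ratio of the measured endpoint.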

[1] = dose: 50.0 mg/kg/injection, schedule: Q04DX002 (ip), vehicle: saline with Tween-80
[2] = dose: 100.0 mg/kg/injection, schedule: Q04DX002 (ip), vehicle: saline with Tween-80
[3] = dose: 200.0 mg/kg/injection, schedule: Q04DX002 (ip), vehicle: saline with Tween-80
[4] = dose: 400.0 mg/kg/injection, schedule: Q04DX002 (ip), vehicle: saline with Tween-80
[5] = dose: 75.0 mg/kg/injection, schedule: Q01DX001 (ip), vehicle: saline
[6] = dose: 25.0 mg/kg/injection, schedule: Q04DX002 (ip), vehicle: saline with Tween-80
[7] = dose: 100.0 mg/kg/injection, schedule: Q04DX003 (ip), vehicle: saline
[8] = dose: 200.0 mg/kg/injection, schedule: Q04DX003 (ip), vehicle: saline
[9] = dose: 100.0 mg/kg/injection, schedule: Q01DX001 (ip), vehicle: saline with Tween-80
[10] = dose: 200.0 mg/kg/injection, schedule: Q01DX001 (ip), vehicle: saline with Tween-80
[11] = dose: 400.0 mg/kg/injection, schedule: Q01DX001 (ip), vehicle: saline with Tween-80

Measured: T/C

COc1ccc2cc1Oc1ccc(cc1)C[C@@H]1c3cc(c(OC)cc3CCN1C)Oc1c(OC)c(OC)cc3c1[C@H](C2)N(C)CC3
inactive: [1] 94 % of control | [2] 94 % of control | [3] 94 % of control | [4] 90 % of control

C=Cc1ccc(C(N)=O)cc1
inactive: dose: 100.0 mg/kg/injection, schedule: Q04DX003 (ip), vehicle: saline with Tween-80 101 % of control | dose: 200.0 mg/kg/injection, schedule: Q04DX003 (ip), vehicle: saline with Tween-80 98 % of control | dose: 400.0 mg/kg/injection, schedule: Q04DX003 (ip), vehicle: saline with Tween-80 96 % of control

COC(=O)c1cccc(N=NN(C)C)c1
inactive: dose: 23.0 mg/kg/injection, schedule: Q01DX009 (ip), vehicle: Klucel (hydroxypropylcellulose) (HPC) 108 % of control | dose: 39.0 mg/kg/injection, schedule: Q01DX009 (ip), vehicle: Klucel (hydroxypropylcellulose) (HPC) 98 % of control | dose: 65.0 mg/kg/injection, schedule: Q01DX009 (ip), vehicle: Klucel (hydroxypropylcellulose) (HPC) 97 % of control | dose: 108.0 mg/kg/injection, schedule: Q01DX009 (ip), vehicle: Klucel (hydroxypropylcellulose) (HPC) 104 % of control

[I][Pt+2][I].[NH-]N1CCN([NH-])CC1
inactive: dose: 3.13 mg/kg/injection, schedule: Q04DX003 (ip), vehicle: distilled water + Tween-80 102 % of control | dose: 6.25 mg/kg/injection, schedule: Q04DX003 (ip), vehicle: distilled water + Tween-80 100 % of control | dose: 12.5 mg/kg/injection, schedule: Q04DX003 (ip), vehicle: distilled water + Tween-80 102 % of control | dose: 25.0 mg/kg/injection, schedule: Q04DX003 (ip), vehicle: distilled water + Tween-80 102 % of control | dose: 50.0 mg/kg/injection, schedule: Q04DX003 (ip), vehicle: distilled water + Tween-80 104 % of control | dose: 100.0 mg/kg/injection, schedule: Q04DX003 (ip), vehicle: distilled water + Tween-80 102 % of control | dose: 200.0 mg/kg/injection, schedule: Q04DX003 (ip), vehicle: distilled water + Tween-80 100 % of control

O=C(NC(CSC(c1ccc(Cl)cc1)c1ccc(Cl)cc1)C(=O)O)OCc1ccccc1 (stereo not drawn)
inactive: [5] 91 % of control | dose: 300.0 mg/kg/injection, schedule: Q01DX001 (ip), vehicle: saline 97 % of control

Oc1ccc(O)cc1
inactive: dose: 33.0 mg/kg/injection, schedule: Q01DX009 (ip), vehicle: saline 102 % of control and 103 % of control | [5] 107 % of control | dose: 75.0 mg/kg/injection, schedule: Q01DX009 (ip), vehicle: saline 120 % of control | dose: 113.0 mg/kg/injection, schedule: Q01DX009 (ip), vehicle: saline 96 % of control

O=C1NC2COC3COc4ccccc4OC3C2N1Cc1ccccc1 (stereo not drawn)
inactive: dose: 75.0 mg/kg/injection, schedule: Q01DX001 (ip), vehicle: saline with Tween-80 93 % of control | dose: 150.0 mg/kg/injection, schedule: Q01DX001 (ip), vehicle: saline with Tween-80 95 % of control | dose: 300.0 mg/kg/injection, schedule: Q01DX001 (ip), vehicle: saline with Tween-80 93 % of control

Nc1ncnc2c1ncn2C1CC(O)C(O)CO1 (stereo not drawn)
inactive: dose: 100.0 mg/kg/injection, schedule: Q01DX001 (ip), vehicle: saline 103 % of control | dose: 200.0 mg/kg/injection, schedule: Q01DX001 (ip), vehicle: saline 105 % of control | dose: 400.0 mg/kg/injection, schedule: Q01DX001 (ip), vehicle: saline 105 % of control

C=CCSc1ncnc2c1ncn2C1OC(CO)C(O)C1O (stereo not drawn)
active: dose: 88.0 mg/kg/injection, schedule: Q01DX009 (ip), vehicle: carboxymethylcellulose (CMC) 154 % of control | dose: 133.0 mg/kg/injection, schedule: Q01DX009 (ip), vehicle: carboxymethylcellulose (CMC) 158 % of control

COC(=O)NC(/C=C/c1ccccc1)c1ccccc1 (stereo not drawn)
inactive: dose: 100.0 mg/kg/injection, schedule: Q04DX003 (ip), vehicle: other 94 % of control | dose: 200.0 mg/kg/injection, schedule: Q04DX003 (ip), vehicle: other 97 % of control | dose: 400.0 mg/kg/injection, schedule: Q04DX003 (ip), vehicle: other 97 % of control

CCOP(=S)(N=C=S)OCC
inactive: [6] 98 % of control | [1] 90 % of control

O=C(Cl)CCc1ccnc2ccccc12
inactive: [7] 95 % of control | [8] 101 % of control | dose: 400.0 mg/kg/injection, schedule: Q04DX003 (ip), vehicle: saline 113 % of control

CCC1=[N+](C)c2ccccc2C1(C)C
inactive: [7] 104 % of control

Cc1cn(C(C=O)OC(C=O)CO)c(=O)[nH]c1=O (stereo not drawn)
inactive: dose: 10.0 mg/kg/injection, schedule: Q01DX005 (ip), vehicle: water 107 % of control | dose: 10.0 mg/kg/injection, schedule: Q01DX009 (ip), vehicle: water 104 % of control | dose: 12.5 mg/kg/injection, schedule: Q01DX005 (ip), vehicle: water 104 % of control | dose: 20.0 mg/kg/injection, schedule: Q01DX005 (ip), vehicle: water 102 % of control | dose: 20.0 mg/kg/injection, schedule: Q01DX009 (ip), vehicle: water 107 % of control | dose: 25.0 mg/kg/injection, schedule: Q01DX005 (ip), vehicle: water 98 % of control | dose: 40.0 mg/kg/injection, schedule: Q01DX005 (ip), vehicle: water 112 % of control | dose: 40.0 mg/kg/injection, schedule: Q01DX009 (ip), vehicle: water 124 % of control | dose: 50.0 mg/kg/injection, schedule: Q01DX005 (ip), vehicle: water 104 % of control | dose: 80.0 mg/kg/injection, schedule: Q01DX009 (ip), vehicle: water 120 % of control | dose: 100.0 mg/kg/injection, schedule: Q01DX005 (ip), vehicle: water 104 % of control | dose: 160.0 mg/kg/injection, schedule: Q01DX009 (ip), vehicle: water 102 % of control | dose: 200.0 mg/kg/injection, schedule: Q01DX005 (ip), vehicle: water 109 % of control

CCN(CC)CCCC(C)NCCCCNC(C)CCCN(CC)CC (stereo not drawn)
inactive: dose: 12.5 mg/kg/injection, schedule: Q01DX009 (ip), vehicle: water 90 % of control | dose: 25.0 mg/kg/injection, schedule: Q01DX009 (ip), vehicle: water 92 % of control

O=c1c2cccc3cccc(c32)c2cc(-c3ccccc3)nn12
inactive: [6] 100 % of control | [1] 92 % of control | [2] 96 % of control | [3] 103 % of control

CO[Si](c1ccccc1)(c1ccccc1)c1cccc2ccccc12
inactive: dose: 75.0 mg/kg/injection, schedule: Q04DX003 (ip), vehicle: saline 89 % of control | dose: 150.0 mg/kg/injection, schedule: Q04DX003 (ip), vehicle: saline 91 % of control | dose: 300.0 mg/kg/injection, schedule: Q04DX003 (ip), vehicle: saline 95 % of control

CC(C)OC(=S)S.[Pt]
inactive: dose: 11.3 mg/kg/injection, schedule: Q04DX003 (ip), vehicle: saline with Tween-80 89 % of control | dose: 22.5 mg/kg/injection, schedule: Q04DX003 (ip), vehicle: saline with Tween-80 97 % of control | dose: 45.0 mg/kg/injection, schedule: Q04DX003 (ip), vehicle: saline with Tween-80 101 % of control | dose: 90.0 mg/kg/injection, schedule: Q04DX003 (ip), vehicle: saline with Tween-80 97 % of control | dose: 180.0 mg/kg/injection, schedule: Q04DX003 (ip), vehicle: saline with Tween-80 95 % of control

CNP1(N(C)C)=NP(NC)(N(C)C)=NP(NC)(N(C)C)=N1 (stereo not drawn)
inactive: [7] 98 % of control | [8] 98 % of control

O=S1(=O)OC2(CCCCC2)c2ccccc21
inactive: [9] 95 % of control | [2] 96 % of control | [10] 95 % of control | [3] 90 % of control | [11] 100 % of control | [4] 93 % of control

COc1cc(N(C)C)ccc1/C=C\c1ccnc2ccccc12
inactive: dose: 50.0 mg/kg/injection, schedule: Q01DX001 (ip), vehicle: saline with Tween-80 96 % of control | [9] 95 % of control | [10] 95 % of control | [11] 93 % of control

[O-]/[N+](=C\Cc1ccccc1)c1ccccc1
inactive: [2] 90 % of control | [3] 87 % of control | [4] 90 % of control
